# Values of other authors, collected in patent US8748570B2, “Insulin analogues” (priority 2010, dated 2014).
# Like-named read-outs stand apart in the source and are kept apart here.
# What was measured:
# [1] = tested on: isolated rat adipocytes
# [2] = tested on: cultured human lymphocytes
# [3] = biological target: IGF-IR (Homo sapiens, UniProt P08069)
substance,measurement,setting,value
"A7, B7-(2,7-diaminosuberoyl]-des-(B26-B30)-insulin B25-amide [dicarba-A7-B7-insulin]",EC50,"[1]; lipogenesis, read-out: ED50 (the source's name)",4.8 nM
same,relative potency compared to human insulin,[1]; on a molar basis,0.66%
same,relative potency compared to human insulin,[1]; on a weight basis,0.72%
same,Relative binding affinity,[2],0.1 % of human insulin
"Glargine insulin: long-acting insulin: two arginines added to the B-chain C-terminus, glycine at A21",duration of activity,in vivo,24 h
same,peak time of effect,in vivo,no peak effect
same,IGF-IR binding,[3],enhanced
detemir: long-acting insulin with a fatty acid chain on the ε-amino group of LysB29,in vivo potency,,reduced
